A word on the IC50: it is the concentration needed to halve the response being measured. One may read the EC50 as the concentration at which the effect is half-maximal.

Read-outs that look alike come from different tables or passages of the source. Some results are limits rather than exact numbers.

Results on two compounds are retold here after patent publication US5977144A (priority 1997, dated 1999).

The target of data set [1] is alpha7 receptor (high affinity alpha-bungarotoxin binding, rat brain membranes) (Rattus norvegicus, UniProt Q05941). Briefly: biochemical.
Data set [2] concerns the target T1, rat alpha7 receptor (Rattus norvegicus, UniProt Q05941). The data set is described as follows: cell-based. On the procedure:
FIG. 13A. Effects of chronic injections of DMXB or nicotine on high affinity [^3 H]ACh or [^125 I]α-bungarotoxin (BTX) binding in rat neocortices. Adult male rats were injected with saline vehicle, 1 mg/kg DMXB or 0.2 mg/kg nicotine (NIC) (IP) daily for 2 weeks. At that time, neocortices were removed and assayed for high affinity [^3 H]ACh or [^125 I]α-bungarotoxin binding as described in the text. […] Responses of rat α7 ACHR to 3-CA, 2-MeOCA and 4-MeOCA. Concentration-response relationships for the peak agonist activated currents of oocytes injected with RNA coding for the rat α7 subunit. All responses were initially measured relative to the individual oocyte-response to 500 μM ACh, applied 5 min prior to drug-application. Responses were normalized relative to the maximum response obtainable with ACh so that a response of 1 represents full efficacy. The ratio of 500 μM ACh control response to ACh maximum was taken from Papke et al., 1997.
(§1) Oocytes were prepared and recordings made as described previously (de Fiebre, et al., 1995). Frogs were anesthetized by submersion in 0.1% (3)-aminobenzoic acid ethyl ester and several lobes of the ovary surgically removed through a small incision in the abdomen wall. Oocytes were freed from the follicle cells by treatment with collagenase (in calcium-free Barth's solution: 88 mM NaCl, 1 mM KCl, 15 mM Hepes pH 7.6, 0.33 mM MgSO4, 0.1 mg/ml gentamicin sulfate) for 2 hr at room temperature and Stage 5 oocytes were isolated. Oocytes were rinsed and stored at 18° C. in Barth's saline (88 mM NaCl, 1 mM KCl, 15 mM Hepes pH 7.6, 0.3 mM Ca(NO3)2, 0.41 mM CaCl2, 0.82 mM MgSO4, 0.1 mg/ml gentamicin sulfate) before and after microinjection with RNA. Microinjection was conducted with a Drummond Scientific "Nanoject Variable" automatic injector. Oocytes were injected with a 50 nl solution of specified rat nicotinic subunit mRNA species (2-10 mg/ml; derived from the cDNA containing HIP 306 plasmid kindly provided by Dr. Jim Boulter, Salk Institute) and incubated 2-7 days at 18° C. before electrophysiological recording. electrophysiological recordings, oocytes were perfused in a Warner Instruments RC-8 recording chamber with a perfusion solution containing 115 mM NaCl, 2.5 mM KCl, 10 mM Hepes pH 7.2, 1.8 mM CaCl2 and 1 μM atropine to block muscarinic responses. Perfusion was continuous at a rate of 10 ml/min. Drags were diluted in perfusion solution and applied using a solenoid valve to switch from perfusion to drug solutions. Current responses to drug administration were studied under two electrode voltage clamp at a holding potential of -70 mV using a Dagan Corp. TEV-200 voltage clamp connected to a 386-SX IBM computer using a TL-1 DMA interface (Axon Instruments). Micropipettes were filled with 3 M KCl and had resistances of 0.5-2 MOhms. Drug responses are analyzed with PClamp software (Axon Instruments). Oocytes with resting potentials of less than -30 mV were rejected.

Data set [3] addresses T2, alpha4beta2 receptor (cytisine binding, rat brain membranes) (Rattus norvegicus, UniProt P09483+P12390).
T2 construct: from tissue; host or cells: rat brain membranes
Briefly: biochemical. As to conditions: 1 μM (Table 2); read-out: alpha4beta2 binding: % inhibition of cytistine binding. The text has this: Further, the cinnamylidene-anabaseines displaced high affinity cytisine binding to rat brain membranes with lower affinity than other types of benzylidene-anabaseines. These observations are consistent with the cinnamylidene-anabaseines having some selectivity for alpha7 receptor subtypes over other types of nicotinic receptors, especially alpha4beta2 receptors, based on the types of receptors to which alpha-bungarotoxin and cytisine bind to in brain.

The target in data set [4] is T1, rat alpha7 receptor. Briefly: cell-based. As to conditions: for Oocytes Antagonist: Table 4. On the set-up: Oocytes Antagonist: unit not given here. On the procedure:
FIG. 13B. Effects of chronic injections of DMXB or nicotine on high affinity [^3 H]ACh or [^125 I]α-bungarotoxin (BTX) binding in rat neocortices. Adult male rats were injected with saline vehicle, 1 mg/kg DMXB or 0.2 mg/kg nicotine (NIC) (IP) daily for 2 weeks. At that time, neocortices were removed and assayed for high affinity [^3 H]ACh or [^125 I]α-bungarotoxin binding as described in the text. […] Responses of rat α7 AChR to 3-CA, 2-MeOCA and 4-MeOCA. […] All responses are expressed relative to the oocyte-response to 500 μM ACh applied 5 min prior to the experimental agonist application.
as §1
Antagonist properties subsequent to agonist activity were measured as a decrease in responsiveness to ACh applied 5 min after compound-application, normalized to ACh application instead of the anabaseine-derivative (FIG. 13A AND FIG. 13B).

Data set [5] addresses rat alpha4beta2 receptor (Rattus norvegicus, UniProt P09483+P12390). The data set is described as follows: Activation of alpha4beta2 receptors expressed in Xenopus oocytes. The class given is cell-based. On the procedure: FIG. 14A. Responses of α4β2 ACHR to 3-CA, 2-MeOCA or 4-MeOCA. Concentration-response relationships for the peak agonist activated currents of oocytes injected with RNA coding for rat α4β2 subunits. Responses are first expressed relative to the response to 10 μM ACh, applied 5 min before drug-application, then normalized to the maximum response obtainable with ACh so that a response of 1 represents full efficacy. The ratio between 10 μM ACh and maximum ACh response was determined in separate experiments.
as §1

Data set [6] concerns animal models of learning and memory. Conditions: animals; cited from earlier work.
In data set [7] the test system is PC12 cells. Conditions: Martin et al., 1994, cited from earlier work.
In data set [8] the test system is NMDA receptor. Briefly: High affinity [3H]MK801 binding to rat brain membranes. As to conditions: concentrations up to 30 μM.
Data set [9] concerns fimbrial transections. As to conditions: Meyer et al., in press; cited from earlier work.
Data set [10] relates to rat. As to conditions: adult rat.
[11] abbreviates: Table 4, read-out: Receptor Binding α7.
The mark [12] stands for this setting: Table 4, read-out: Oocytes Agonist α7.
Where [13] appears, read: Table 4, read-out: Oocytes Agonist α4.

Sequence of alpha7 receptor (high affinity alpha-bungarotoxin binding, rat brain membranes) (Q05941 23-502): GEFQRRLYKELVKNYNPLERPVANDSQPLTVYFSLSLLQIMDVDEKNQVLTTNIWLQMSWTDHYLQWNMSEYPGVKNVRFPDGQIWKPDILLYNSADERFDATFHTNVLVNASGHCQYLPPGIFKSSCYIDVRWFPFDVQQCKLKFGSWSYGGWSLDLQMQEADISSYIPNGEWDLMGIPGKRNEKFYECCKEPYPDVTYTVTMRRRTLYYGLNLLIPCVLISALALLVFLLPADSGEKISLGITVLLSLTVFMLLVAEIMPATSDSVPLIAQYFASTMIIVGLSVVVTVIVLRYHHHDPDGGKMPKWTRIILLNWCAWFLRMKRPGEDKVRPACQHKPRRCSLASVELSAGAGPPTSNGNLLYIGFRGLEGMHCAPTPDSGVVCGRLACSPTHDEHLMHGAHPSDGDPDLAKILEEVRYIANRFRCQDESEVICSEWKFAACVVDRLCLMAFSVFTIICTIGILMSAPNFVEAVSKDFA
T1 sequence (Q05941 23-502): as above
Sequence of rat alpha4beta2 receptor (P09483 31-630): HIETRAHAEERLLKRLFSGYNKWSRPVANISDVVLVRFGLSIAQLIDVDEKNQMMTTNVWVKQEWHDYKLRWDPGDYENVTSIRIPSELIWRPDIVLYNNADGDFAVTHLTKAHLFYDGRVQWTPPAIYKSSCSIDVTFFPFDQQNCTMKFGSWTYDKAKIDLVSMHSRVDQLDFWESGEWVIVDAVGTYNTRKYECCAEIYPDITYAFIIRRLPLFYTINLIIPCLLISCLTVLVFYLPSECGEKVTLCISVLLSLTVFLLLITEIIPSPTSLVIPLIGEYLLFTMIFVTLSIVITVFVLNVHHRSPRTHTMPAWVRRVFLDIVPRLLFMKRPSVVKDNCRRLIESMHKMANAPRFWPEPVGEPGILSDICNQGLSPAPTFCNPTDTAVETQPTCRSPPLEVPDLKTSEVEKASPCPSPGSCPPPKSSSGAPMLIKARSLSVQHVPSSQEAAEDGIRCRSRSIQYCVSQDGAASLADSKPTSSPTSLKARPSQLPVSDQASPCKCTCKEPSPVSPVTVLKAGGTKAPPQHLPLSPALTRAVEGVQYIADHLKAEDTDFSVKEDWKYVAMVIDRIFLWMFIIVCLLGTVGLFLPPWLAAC
Sequence of rat alpha4beta2 receptor (P12390 25-500): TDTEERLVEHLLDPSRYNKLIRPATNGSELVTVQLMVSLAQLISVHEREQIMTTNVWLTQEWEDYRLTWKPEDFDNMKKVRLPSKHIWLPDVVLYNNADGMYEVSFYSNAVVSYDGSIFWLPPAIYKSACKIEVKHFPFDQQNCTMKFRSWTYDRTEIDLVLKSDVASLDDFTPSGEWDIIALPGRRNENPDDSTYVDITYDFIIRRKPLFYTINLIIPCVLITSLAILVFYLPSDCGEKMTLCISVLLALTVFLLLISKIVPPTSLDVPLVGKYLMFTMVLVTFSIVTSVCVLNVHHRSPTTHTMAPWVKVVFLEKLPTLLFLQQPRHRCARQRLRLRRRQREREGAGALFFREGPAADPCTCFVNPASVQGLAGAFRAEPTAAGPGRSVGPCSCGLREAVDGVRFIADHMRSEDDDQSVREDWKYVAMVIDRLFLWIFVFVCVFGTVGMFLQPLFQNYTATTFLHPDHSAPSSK
T2 sequence (P09483 31-630): as the sequence (P09483 31-630) above
T2 sequence (P12390 25-500): as the sequence (P12390 25-500) above

Turning to `COc1ccccc1/C=C/C=C1\CCCN=C1c1cccnc1` [2-MeOCA, E,E-3-(2-Methoxycinnamylidene)anabaseine], the inhibition at 1 µM stood at 94.9% in [1] (1 μM (Table 2), read-out: alpha7 binding: % inhibition of alphabungarotoxin binding); 94.9% in data set [1] (setting [11]); 29% in [3]. In addition, the IC50 in data set [1] (rat brain membranes, read-out: IC50, [125I]α-bungarotoxin binding) came to 8 nM; in [4] (ACh applied 5 min after compound, read-out: IC50, antagonism subsequent to agonist activity), 2300 ± 700 nM. The “selectivity α7 over α4β2 (in words)” value in [2] is recorded as “selectively activate α7 receptors over α4β2”. In addition, the results for the Emax in data set [2] (setting [12]), in [2] (read-out: alpha7 activation: % response observed with 500 μM acetylcholine) and in data set [5] (setting [13]) were 96%, 96% and 2.2%, respectively. Moreover, the “α7 receptor activation (in words)” value in data set [2] (oocyte expression system) is “fully efficaciously”. Besides, in data set [2] (oocytes, read-out: α7 EC50), the concentration for a half-maximal effect (EC50) turned out to be 6200 ± 2200 nM. Moreover, the “inhibition of α7 receptors, estimated” value in data set [4] (10 μM, estimated from oocyte results) is reported as “over 90%”. Further, in data set [4] (10 μM, ACh application 5 min later, read-out: long term inhibition of α7 receptors), the inhibition at 10 µM turned out to be 90%. For the same compound, the “Oocytes Antagonist” value in data set [4] is recorded as “.08”.
For `COc1ccc(/C=C2\CCCN=C2c2cccnc2)c(OC)c1` [DMXB, 3-(2,4-Dimethoxybenzylidene) anabaseine], in [6], the “memory-related performance (in words)” value was “enhances performance in several spatial and non-spatial memory-related paradigms in rats and rabbits”. The inhibition at 1 µM came to 52% in [1] (setting [11]) and 52% in data set [1] (concentration of 1 μM (Table 1), read-out: alpha7 binding: % Inhibition of high affinity alphabungarotoxin binding (1 nM)). Also, the results for the “activity against trophic factor deprivation in PC12 cells (in words)” value in data set [7] (listed as GTS 21) and in data set [7] (listed as GTS-21) were “sufficient to reduce this neurotoxicity” and “neuroprotective activity”, respectively. The “interference with high affinity [3H]MK801 binding (in words)” value in data set [8] is “did not interfere”. In addition, the “activity against fimbrial transections in vivo (in words)” value in data set [9] is “neuroprotective activity”. In data set [10], the “spontaneous locomotor activity (in words)” value is “without adversely affecting the animal's other functions, including its spontaneous locomotor activity”. Also, the Emax is 20% in data set [2] (setting [12]); 20% in data set [2] (read-out: alpha7 activation: response, normalized to 500 μM acetylcholine (maximum response)); under 1% in data set [5] (setting [13]); under 1% in [5] (read-out: alpha4beta2 activation: response compared to maximal acetylcholine). The “Oocytes Antagonist” value in [4] was “.20”.
